Broadly, the solubility (thermodynamic) is solubility found after equilibrating the solid with the medium. As a reminder, the logD is the decadic logarithm of the distribution of all forms, ionised or not, between an organic phase and buffer at a given pH. A higher logD goes with higher lipophilicity.

Molecules are shown by their SMILES. ≈ marks a conversion by molar mass, not a printed value. Where a SMILES comes first, the peptide text is derived from it. [ ]: non-standard residue; d: D form. NMeF = CN[C@@H](Cc1ccccc1)C(=O)O; NMeA = CN[C@@H](C)C(=O)O; dNMeA = CN[C@H](C)C(=O)O; Sar = CNCC(=O)O Where only a bound is given, the exact number is not on record here.

Format in all cases: physicochemical
Data set [1] in a line: Decadiene/water partition coefficient, logD of compound at pH 7.4 by HPLC analysis.
The nature of data set [2]: Solubility of the compound by high-throughput equilibrium solubility assay.
A short description of data set [3]: Octanol/water partition coefficient, logD of compound at pH 7.4 by HPLC analysis.

Compound `CC(C)C[C@@H]1NC(=O)[C@H]([C@@H](C)O)N(C)C(=O)[C@H]2CCCN2C(=O)[C@H](CC(C)C)NC(=O)[C@H]([C@@H](C)O)N(C)C(=O)[C@H](CC(C)C)NC(=O)[C@H](C)N(C)C(=O)[C@H]2CCCN2C(=O)[C@H](CC(C)C)NC(=O)[C@H]([C@@H](C)O)N(C)C1=O` yielded a logD hydrocarbon water in data set [1] of 0.4. Besides, the solubility (thermodynamic) in data set [2] amounted to 827 µM (≈ 891 µg/mL).
In the case of `CC(C)C[C@@H]1NC(=O)[C@H](C)N(C)C(=O)[C@H]2CCCN2C(=O)[C@H](CC(C)C)NC(=O)[C@H](C)N(C)C(=O)[C@H]([C@@H](C)O)NC(=O)[C@H](C)N(C)C(=O)[C@H]2CCCN2C(=O)[C@H](CC(C)C)NC(=O)[C@H](C)N(C)C1=O`, in data set [3], the logD worked out at 2.7. This compound also had a logD hydrocarbon water in data set [1] of 0.4. Also, the thermodynamic solubility in data set [2] was over 1000 µM.
For the compound `CC(C)C[C@@H]1NC(=O)[C@H](C)N(C)C(=O)[C@H]2CCCN2C(=O)[C@H](CC(C)C)NC(=O)[C@H](C)N(C)C(=O)[C@H](CC(C)C)NC(=O)[C@H]([C@@H](C)O)N(C)C(=O)[C@H]2CCCN2C(=O)[C@H](CC(C)C)NC(=O)[C@H]([C@@H](C)O)N(C)C1=O`, in data set [1], the logD hydrocarbon water was found to be 1.2. In addition, in data set [2], the thermodynamic solubility is over 1000 µM.
Regarding `CC(C)C[C@@H]1NC(=O)[C@H]([C@@H](C)O)N(C)C(=O)[C@H]2CCCN2C(=O)[C@H](CC(C)C)NC(=O)[C@H](C)N(C)C(=O)[C@H](CC(C)C)NC(=O)[C@H](Cc2ccccc2)N(C)C(=O)[C@H]2CCCN2C(=O)[C@H](CC(C)C)NC(=O)[C@H](C)N(C)C1=O`, the logD in data set [3] stood at 5.7. In data set [1], this compound gave a logD hydrocarbon water of 3.7. The same compound came in with a solubility (thermodynamic) in data set [2] of 65 µM (≈ 71.1 µg/mL).
The corresponding values for `CC(C)C[C@@H]1NC(=O)[C@H](C)N(C)C(=O)[C@H](CC(C)C)NC(=O)[C@H]2CCCN2C(=O)[C@@H]2CCCN2C(=O)[C@H](CC(C)C)NC(=O)[C@H](C)N(C)C(=O)[C@H](CC(C)C)NC(=O)[C@H](C(C)C)N(C)C(=O)[C@@H](C)N(C)C1=O` are 5.1, 3.1 and 92 µM (≈ 93.4 µg/mL).
The compound `CC(C)C[C@@H]1NC(=O)[C@H](C)N(C)C(=O)[C@H]2CCCN2C(=O)[C@H](CC(C)C)NC(=O)[C@H](C)N(C)C(=O)[C@H](CC(C)C)NC(=O)[C@H](C)N(C)C(=O)[C@H]2CCCN2C(=O)[C@H]([C@@H](C)O)NC(=O)[C@H](C)N(C)C1=O` returned a logD in data set [3] of 2.6. The logD hydrocarbon water in data set [1] came out at 0.1. Besides, the thermodynamic solubility in data set [2] was over 1000 µM.
In turn, `CC(C)C[C@@H]1NC(=O)[C@H](Cc2ccccc2)N(C)C(=O)[C@H]2CCCN2C(=O)[C@H](CC(C)C)NC(=O)[C@H](C)N(C)C(=O)[C@H]([C@@H](C)O)NC(=O)[C@H](Cc2ccccc2)N(C)C(=O)[C@H]2CCCN2C(=O)[C@H](CC(C)C)NC(=O)[C@H](C)N(C)C1=O` registered a logD in data set [3] of 5.4. Also, the logD hydrocarbon water in data set [1] amounted to 4. The solubility (thermodynamic) in data set [2] turned out to be 15 µM (≈ 16.9 µg/mL).
`CC(C)C[C@@H]1NC(=O)[C@H](C(C)C)N(C)C(=O)[C@H]2CCCN2C(=O)[C@H](CC(C)C)NC(=O)[C@H](C)N(C)C(=O)[C@H](CC(C)C)NC(=O)[C@H](C(C)C)N(C)C(=O)[C@H]2CCCN2C(=O)[C@H](CC(C)C)NC(=O)[C@H](C)N(C)C1=O` came in with a logD in data set [3] of 5.1. For the same compound, the logD hydrocarbon water in data set [1] is 3.8. Besides, in data set [2], the thermodynamic solubility turned out to be 57 µM (≈ 59.5 µg/mL).
As to `CC(C)C[C@@H]1NC(=O)[C@H]([C@@H](C)O)N(C)C(=O)[C@@H]2C[C@@H](O)CN2C(=O)[C@H](CC(C)C)NC(=O)[C@H](C)N(C)C(=O)[C@H](CC(C)C)NC(=O)[C@H](Cc2ccccc2)N(C)C(=O)[C@@H]2C[C@@H](O)CN2C(=O)[C@H](CC(C)C)NC(=O)[C@H](C)N(C)C1=O`, in data set [3], the logD is 4.7. In addition, the logD hydrocarbon water in data set [1] was -0.6. For the same compound, in data set [2], the thermodynamic solubility amounted to 320 µM (≈ 360 µg/mL).
`CC(C)C[C@@H]1NC(=O)[C@H](C)N(C)C(=O)[C@H]2CCCN2C(=O)[C@H](CC(C)C)NC(=O)[C@H](C)N(C)C(=O)[C@H](CC(C)C)NC(=O)[C@H](C)N(C)C(=O)[C@H]2CCCN2C(=O)[C@H](CC(C)C)NC(=O)[C@H]([C@@H](C)O)N(C)C1=O` came in with a logD hydrocarbon water in data set [1] of 1.7. Besides, the solubility (thermodynamic) in data set [2] stood at 763 µM (≈ 776 µg/mL).
`CC(C)C[C@@H]1NC(=O)[C@H]([C@@H](C)O)N(C)C(=O)[C@H]2CCCN2C(=O)[C@H](CC(C)C)NC(=O)[C@H](C)N(C)C(=O)[C@H](CC(C)C)NC(=O)[C@H]([C@@H](C)O)N(C)C(=O)[C@H]2CCCN2C(=O)[C@H](CC(C)C)NC(=O)[C@H](C)N(C)C1=O` came in with a logD in data set [3] of 3.8. The logD hydrocarbon water in data set [1] was 1.2. The same compound showed a thermodynamic solubility in data set [2] of 884 µM (≈ 926 µg/mL).
`CC(C)C[C@@H]1NC(=O)[C@H](Cc2ccccc2)N(C)C(=O)[C@H]2CCCN2C(=O)[C@H](CC(C)C)NC(=O)[C@H](C)N(C)C(=O)[C@H](CC(C)C)NC(=O)[C@H](Cc2ccccc2)N(C)C(=O)[C@H]2CCCN2C(=O)[C@H](CC(C)C)NC(=O)[C@H]([C@@H](C)O)N(C)C1=O` showed a logD in data set [3] of 5.7. Further, the logD hydrocarbon water in data set [1] stood at 5. The compound also showed a thermodynamic solubility in data set [2] of 4 µM (≈ 4.68 µg/mL).
The like results for `CC(C)C[C@@H]1NC(=O)[C@H](Cc2ccccc2)N(C)C(=O)[C@H]2CCCN2C(=O)[C@H](CC(C)C)NC(=O)[C@H](C)N(C)C(=O)[C@H](CC(C)C)NC(=O)[C@H](Cc2ccccc2)N(C)C(=O)[C@H]2CCCN2C(=O)[C@H]([C@@H](C)O)NC(=O)[C@H](C)N(C)C1=O` were, in that order, 5.1, 3.6 and 20 µM (≈ 22.5 µg/mL).
In data set [3], `CC(C)C[C@@H]1NC(=O)[C@@H]2CCCN2C(=O)[C@H]2CCCN2C(=O)[C@H](CC(C)C)NC(=O)[C@H](C)N(C)C(=O)[C@H](CC(C)C)NC(=O)[C@@H]2CCCN2C(=O)[C@H]2CCCN2C(=O)[C@H](CC(C)C)NC(=O)[C@H](C)N(C)C1=O` displayed a logD of 4.3. In data set [1], this compound displayed a logD hydrocarbon water of 1.6. In data set [2], this compound showed a solubility (thermodynamic) of 220 µM (≈ 222 µg/mL).
Consider `CC(C)C[C@@H]1NC(=O)[C@H]([C@@H](C)O)N(C)C(=O)[C@H]2CCCN2C(=O)[C@H](CC(C)C)NC(=O)[C@H]([C@@H](C)O)N(C)C(=O)[C@H](CC(C)C)NC(=O)[C@H]([C@@H](C)O)N(C)C(=O)[C@H]2CCCN2C(=O)[C@H](CC(C)C)NC(=O)[C@H]([C@@H](C)O)N(C)C1=O`, for which the logD hydrocarbon water in data set [1] is -0.8. For the same compound, the thermodynamic solubility in data set [2] is over 1000 µM.
`CC(C)C[C@@H]1NC(=O)[C@H](C)N(C)C(=O)[C@H]2CCCN2C(=O)[C@H](CC(C)C)NC(=O)[C@H](C)N(C)C(=O)[C@H](CC(C)C)NC(=O)[C@H](C)N(C)C(=O)[C@@H]2C[C@@H](O)CN2C(=O)[C@H](CC(C)C)NC(=O)[C@H](C)N(C)C1=O` came in with a logD in data set [3] of 4.1. Besides, in data set [1], the logD hydrocarbon water came to 0.2. Moreover, the solubility (thermodynamic) in data set [2] came out at 910 µM (≈ 913 µg/mL).
`CC(C)C[C@@H]1NC(=O)[C@H](C(C)C)N(C)C(=O)[C@H]2CCCN2C(=O)[C@H](CC(C)C)NC(=O)[C@@H](C)N(C)C(=O)[C@H](CC(C)C)NC(=O)[C@H](C(C)C)N(C)C(=O)[C@H](C)N(C)C(=O)[C@H](CC(C)C)NC(=O)[C@@H](C)N(C)C1=O` registered a logD in data set [3] of 5.2. This compound also gave a logD hydrocarbon water in data set [1] of 4. Moreover, the solubility (thermodynamic) in data set [2] was 220 µM (≈ 227 µg/mL).
In turn, `CC(C)C[C@@H]1NC(=O)[C@H](C)N(C)C(=O)[C@H](CC(C)C)NC(=O)[C@H](C(C)C)N(C)C(=O)[C@@H](C)N(C)C(=O)[C@H](CC(C)C)NC(=O)[C@H](C)N(C)C(=O)[C@H](CC(C)C)NC(=O)[C@H](C(C)C)N(C)C(=O)[C@@H](C)N(C)C1=O` registered a logD in data set [3] of 5.2. In data set [1], this compound gave a logD hydrocarbon water of 3.8. The compound further returned a solubility (thermodynamic) in data set [2] of 560 µM (≈ 571 µg/mL).
In turn, `CC(C)C[C@@H]1NC(=O)[C@H](C)N(C)C(=O)[C@H]2CCCN2C(=O)[C@H](CC(C)C)NC(=O)[C@H](C)N(C)C(=O)[C@H](CC(C)C)NC(=O)[C@H](C)N(C)C(=O)[C@H]2CCCN2C(=O)[C@H](CC(C)C)NC(=O)[C@H](C)N(C)C1=O` had a logD in data set [3] of 4.7. Also, the logD hydrocarbon water in data set [1] was 2.5. This compound also yielded a thermodynamic solubility in data set [2] of 794 µM (≈ 784 µg/mL).
In data set [1], `CC(C)C[C@@H]1NC(=O)[C@H](C)N(C)C(=O)[C@H]2CCCN2C(=O)[C@H](CC(C)C)NC(=O)[C@H]([C@@H](C)O)N(C)C(=O)[C@H](CC(C)C)NC(=O)[C@H](C)N(C)C(=O)[C@H]2CCCN2C(=O)[C@H](CC(C)C)NC(=O)[C@H]([C@@H](C)O)N(C)C1=O` yielded a logD hydrocarbon water of 1. The compound further came in with a solubility (thermodynamic) in data set [2] of 445 µM (≈ 466 µg/mL).
The corresponding values for `CC(C)C[C@@H]1NC(=O)[C@H](C)N(C)C(=O)[C@H](CC(C)C)NC(=O)[C@@H]2CCCN2C(=O)CN(C)C(=O)[C@H](CC(C)C)NC(=O)[C@H](C)N(C)C(=O)[C@H](CC(C)C)NC(=O)[C@@H]2CCCN2C(=O)CN(C)C1=O` (cyclo(L[NMeA]L[Sar]PL[NMeA]L[Sar]P)) are 0.3 and over 1000 µM.
Compound `CC(C)C[C@@H]1NC(=O)[C@H](C)N(C)C(=O)[C@H](CC(C)C)NC(=O)[C@H](C)N(C)C(=O)[C@@H](C)N(C)C(=O)[C@H](CC(C)C)NC(=O)[C@H](C)N(C)C(=O)[C@H](CC(C)C)NC(=O)[C@H](C)N(C)C(=O)[C@@H](C)N(C)C1=O` (cyclo(L[NMeA]L[dNMeA][NMeA]L[NMeA]L[dNMeA][NMeA])) returned a logD in data set [3] of 4.6. The logD hydrocarbon water in data set [1] was found to be 2.7. The same compound registered a solubility (thermodynamic) in data set [2] of 477 µM (≈ 459 µg/mL).
`CC(C)C[C@@H]1NC(=O)[C@H](C)N(C)C(=O)[C@H](CC(C)C)NC(=O)[C@H](Cc2ccccc2)N(C)C(=O)[C@@H](C)N(C)C(=O)[C@H](CC(C)C)NC(=O)[C@H](C)N(C)C(=O)[C@H](CC(C)C)NC(=O)[C@H](Cc2ccccc2)N(C)C(=O)[C@@H](C)N(C)C1=O` (cyclo(L[NMeA]L[dNMeA][NMeF]L[NMeA]L[dNMeA][NMeF])) gave a logD hydrocarbon water in data set [1] of 5.1. Also, the solubility (thermodynamic) in data set [2] is 4 µM (≈ 4.46 µg/mL).
As for `CC(C)C[C@@H]1NC(=O)[C@H](Cc2ccccc2)N(C)C(=O)[C@H]2CCCN2C(=O)[C@H](CC(C)C)NC(=O)[C@H](C)N(C)C(=O)[C@H](CC(C)C)NC(=O)[C@H](Cc2ccccc2)N(C)C(=O)[C@H]2CCCN2C(=O)[C@H](CC(C)C)NC(=O)[C@H](C)N(C)C1=O` (cyclo(L[NMeA]L[dP][NMeF]L[NMeA]L[dP][NMeF])), the pH-dependent lipophilicity (logD) in data set [3] was over 5.7. The compound further returned a logD hydrocarbon water in data set [1] of over 3.5. The thermodynamic solubility in data set [2] stood at 4 µM (≈ 4.56 µg/mL).

(Values after ChEMBL document CHEMBL5233275, “Effect of Flexibility, Lipophilicity, and the Location of Polar Residues on the Passive Membrane Permeability of a Series of Cyclic Decapeptides” (J Med Chem, 2021).)
